# Several values for one entry are separate records, joined by “and”; a condition that tells them apart may be missing. Identical values can stand only once.
# How the values were obtained:
# COX enzyme = target: T1, COX enzyme (Coxsackievirus B5, UniProt Q03053); assay: Assay optimization - solvent with COX enzyme (1:10); assay type: biochemical, Enterovirus (COX)
# T1 construct: 3D structure modeling of enterovirus 3C protease with it substrate Camb2
# Method: Various solvents were tested in order to optimize substrate solubility and stability. […] All the solvents tested were prepared at 0-10% concentrations in 2× reaction buffer and the final concentrations tested were 0-5%. […] Camb 2 was added to the final 2× buffer. For 1,2-Propanediol and 1,3-Propanediol, Camb 2 was first dissolved in the solvent at the appropriate concentration. The solvent+camb2 was then added to 3× reaction buffer to make a final 2× reaction buffer+2 uM camb2. […]
# 1,3-Propanediol with COX enzyme (1:10):
# 3C protease (EV assay) = assay: Assay optimization - solvent (EV assay, Camb 2); assay type: biochemical, Enterovirus; conditions: for effect on reaction rate: all concentrations tested
# Method: Various solvents were tested in order to optimize substrate solubility and stability. […] All the solvents tested were prepared at 0-10% concentrations in 2× reaction buffer and the final concentrations tested were 0-5%. […] Camb 2 was added to the final 2× buffer. For 1,2-Propanediol and 1,3-Propanediol, Camb 2 was first dissolved in the solvent at the appropriate concentration. The solvent+camb2 was then added to 3× reaction buffer to make a final 2× reaction buffer+2 uM camb2. All the experiments were performed in the TECAN Polarstar n=1 in triplicates.
# [1] = target: T2, Recombinant protease from enterovirus strain Echo (Echovirus 30, UniProt Q9WN78); assay: Enterovirus assay optimization with recombinant Echo protease (plates, tubes, buffer, Na2SO4, substrate concentration, diluent); assay type: biochemical; conditions: for Positive control, Average / Positive control: substrate stock diluted 1:8 in this diluent, 0.25 uM final, analysis 5-10 min; for Positive control: single repetition
# T2 construct: Phosphoramidon was tested using the Echovirus 3C recombinant
# Method: • Inhibitor Cocktail: Inhibitors cocktail I10 • Enzyme dilution buffer: −25 mM HEPES pH 7.5, 150 mM NaCl, 1 mM EDTA, 10% Glycerol, 0.5 mg/ml BSA, 1M Sucrose, 0.1% Sodium azid. • 2× reaction buffer, Buffer B: 50 mM HEPES, 10 mM EDTA, 10 mM EGTA, 1.2M Na2SO4, sodium azide 0.1%, pH 8.5 • Artificial CSF: NaCl 125 mM, KCl 2.5 mM, MgCl 1 mM, NaH2PO4 1.25 mM, CaCl2 2 mM, Glucose 2.5 mM, NaHCO3 25 mM, 0.1% Sodium azide, HEPES 25 mM, pH 7.45. • Enzyme: Recombinant protease from enterovirus strain “Echo” [dilution 1:18 • Substrate: Camb-2.3, 1 mM, Camb-2.4, 2 mM. (Different batches for the same Camb2 sequence) • HEPES Buffer: HEPES 25 mM • NB tubes: Sigma Cat #Z666505 • Amber tubes: USA scientific Inc. Cat. 1620-2707 • 96 well Plate: Dark bottom NB plate—Greiner Cat. 655900
# • 1. Add artiCSF±HEPES buffer to plate • 2. Prepare 400 ul HEPES buffer±RB+substrate (camb2.3 and 2.4) in both amber and NB tubes. • 3. Add enzyme to wells • 4. Add HEPES buffer±RB+substrate to wells with multichannel pipette.
# The reaction buffer is a part of the enterovirus test kit of the invention. The camb-2 substrate is dissolved in the reaction buffer. The reaction buffer contains different salts to allow the tested enzyme to work at the optimal conditions. The current reaction buffer composition is: HEPES pH 7.5, 300 mM NaCl, 10 mM EDTA, 10 mM EGTA, 10% Glycerol, 1.8M Na2SO4, 0.1% Sodium azide. The amount of salt in the reaction buffer is high and allows optimal enzymatic activity. However, under these conditions, substrate solubility is affected. Thus, the reaction buffer was improved to increase substrate solubility without reducing enzymatic activity of the tested 3C protease.
# 300 mM NaCl and 10% glycerol was removed from the reaction buffer and several reduced concentrations of Na2SO4 (starting at 0.9M) were tested in order to determine the minimal salt requirements of the assay (Tables 31-34). Experiments were repeated at least three times by two different scientists.
# CSF sample was incubated with 50 nM Echo protease and 2× reaction buffer with 0.6M Na2SO4. Also included were 3 blanks and 9 positive control repetitions.
# The effect of reduction in substrate (camb2) concentration and increase in measurement time was tested. The experiment was performed at a final substrate (camb2.5) concentrations of 1, 0.5, 0.25 and 0.125 μM and data analysis was made at different time intervals: 1.5-5, 5-12 and 5-22 min (FIGS. 27A-C).
# Sodium sulfate generally has an ambivalent effect: it increase 3C protease activity and reduces substrate solubility. Once it was decided that the substrate concentration would be reduced to 0.25 uM and results analyzed at between 5-10 min, the Na2SO4 concentration was optimized. […] 0.6-0.4M Na2SO4 was tested under the new assay conditions.
# • Data analysis was performed between 5-10 min. • The assay activity was measured in triplicates by three scientists. The results in Table 51 are the average of the three triplicates.
# To examine the effect of substrate dilution in DMSO vs. DDW under the new assay conditions, substrate stock (1 mM in DMSO) was diluted 1:8 in DMSO or in DDW to yield the working stock. The working stocks were further diluted 1:250 in 2× RB for a concentration of 0.5 uM (0.25 uM final in the well).
# The assay activity was measured in triplicates by three scientists. The results in Table 52 are the average of the three triplicates.
# [2] = 1,2-propanediol 1% final, Table 50 Galaxy FLUOstar with nonbinding microplate
# [3] = 1,2-propanediol 2.5% final, Table 49 TECAN with nonbinding microplate
# [4] = 1,2-propanediol 2.5% final, Table 50 Galaxy FLUOstar with nonbinding microplate
# [5] = 1,2-propanediol 4% final, Table 49 TECAN with nonbinding microplate
# [6] = 1,2-propanediol 4% final, Table 50 Galaxy FLUOstar with nonbinding microplate
# [7] = 1,2-propanediol 5% final, Table 49 TECAN with nonbinding microplate
# [8] = 1,2-propanediol 5% final, Table 50 Galaxy FLUOstar with nonbinding microplate
# [9] = 1,3-propanediol 1% final, Table 47 GalaxyFLUOstar, second sub-table
# [10] = 1,3-propanediol 2.5% final, Table 47 GalaxyFLUOstar, second sub-table
# [11] = 1,3-propanediol 2.5% final, Table 48 TECAN with nonbiding plate
# [12] = 1,3-propanediol 4% final, Table 47 GalaxyFLUOstar, second sub-table
# [13] = 1,3-propanediol 4% final, Table 48 TECAN with nonbiding plate
# [14] = 1,3-propanediol 5% final, Table 47 GalaxyFLUOstar, first sub-table
# [15] = 1,3-propanediol 5% final, Table 47 GalaxyFLUOstar, second sub-table
# [16] = 1,3-propanediol 5% final, Table 48 TECAN with nonbiding plate
# [17] = Acetonitrile 0.5% final, Table 43 Experiment 2
# [18] = Acetonitrile 1% final, Table 42 Experiment 1
# [19] = Acetonitrile 1% final, Table 43 Experiment 2
# [20] = Acetonitrile 2.5% final, Table 42 Experiment 1
# [21] = Acetonitrile 4% final, Table 42 Experiment 1
# [22] = Acetonitrile 5% final, Table 42 Experiment 1
# [23] = Isopropanol 1% final, Table 39 Experiment 1
# [24] = Isopropanol 1% final, Table 40 Experiment 2
# [25] = Isopropanol 2.5% final, Table 39 Experiment 1
# [26] = Isopropanol 2.5% final, Table 40 Experiment 2
# [27] = Isopropanol 4% final, Table 39 Experiment 1
# [28] = Isopropanol 4% final, Table 40 Experiment 2
# [29] = Isopropanol 5% final, Table 39 Experiment 1
# [30] = Isopropanol 5% final, Table 40 Experiment 2
# T1 sequence (Q03053 1541-1723): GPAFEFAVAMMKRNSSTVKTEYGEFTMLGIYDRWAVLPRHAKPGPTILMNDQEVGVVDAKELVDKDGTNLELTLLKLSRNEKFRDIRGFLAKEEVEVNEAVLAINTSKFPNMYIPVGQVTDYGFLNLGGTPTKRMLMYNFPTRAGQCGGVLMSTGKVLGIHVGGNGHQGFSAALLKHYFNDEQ
# T2 sequence (Q9WN78 1550-1732): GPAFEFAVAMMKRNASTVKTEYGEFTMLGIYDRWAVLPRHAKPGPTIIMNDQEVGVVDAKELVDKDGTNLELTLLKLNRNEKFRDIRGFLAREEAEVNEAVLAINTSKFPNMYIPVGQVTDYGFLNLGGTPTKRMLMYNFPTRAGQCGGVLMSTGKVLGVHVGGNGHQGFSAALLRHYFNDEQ
structure (smiles),measurement,setting,value
"CC(O)CO (stereo not drawn) [1,2-propanediol, 1,2-Propanediol]",Reaction rate Average P.C,"COX enzyme; 1,2-propanediol 1% final, Table 49 TECAN with nonbinding microplate",8588.13 RFU/min
same,% Loss,COX enzyme; [2],9%
same,Reaction rate Average P.C,COX enzyme; [2],5689.6 RFU/min
same,% Loss,COX enzyme; [3],20%
same,Reaction rate Average P.C,COX enzyme; [3],6521.1 RFU/min
same,% Loss,COX enzyme; [4],22%
same,Reaction rate Average P.C,COX enzyme; [4],4838.97 RFU/min
same,% Loss,COX enzyme; [5],30%
same,Reaction rate Average P.C,COX enzyme; [5],5013.13 RFU/min
same,% Loss,COX enzyme; [6],30%
same,Reaction rate Average P.C,COX enzyme; [6],4291.04 RFU/min
same,% Loss,COX enzyme; [7],44%
same,Reaction rate Average P.C,COX enzyme; [7],4509 RFU/min
same,% Loss,COX enzyme; [8],47%
same,Reaction rate Average P.C,COX enzyme; [8],3278.19 RFU/min
same,effect on enzymatic activity,COX enzyme; all concentrations tested except 1%,inhibited enzymatic activity
"OCCCO [1,3-propanediol, 1,3-Propanediol]",Reaction rate Average P.C,"COX enzyme; 1,3-propanediol 1% final, Table 47 GalaxyFLUOstar, first sub-table",3948.19 RFU/min
same,% Loss,COX enzyme; [9],20%
same,Reaction rate Average P.C,COX enzyme; [9],4125.89 RFU/min
same,Reaction rate Average P.C,"COX enzyme; 1,3-propanediol 1% final, Table 48 TECAN with nonbiding plate",7620.53 RFU/min
same,% Loss,COX enzyme; [10],11%
same,Reaction rate Average P.C,COX enzyme; [10],4491.13 RFU/min
same,% Loss,COX enzyme; [11],36%
same,Reaction rate Average P.C,COX enzyme; [11],4681.05 RFU/min
same,% Loss,COX enzyme; [12],42%
same,Reaction rate Average P.C,COX enzyme; [12],2956.26 RFU/min
same,% Loss,COX enzyme; [13],2%
same,Reaction rate Average P.C,COX enzyme; [13],7238.7 RFU/min
same,% Loss,COX enzyme; [14],10%
same,Reaction rate Average P.C,COX enzyme; [14],3072.45 RFU/min
same,% Loss,COX enzyme; [15],47%
same,Reaction rate Average P.C,COX enzyme; [15],2389.47 RFU/min
same,% Loss,COX enzyme; [16],20%
same,Reaction rate Average P.C,COX enzyme; [16],5929.86 RFU/min
CC#N [Acetonitrile],% Loss,3C protease (EV assay); [17],7%
same,Reaction rate Average P.C,3C protease (EV assay); [17],1257.5 RFU/min
same,% Loss,3C protease (EV assay); [18],43%
same,Reaction rate Average P.C,3C protease (EV assay); [18],1106.6 RFU/min
same,% Loss,3C protease (EV assay); [19],25%
same,Reaction rate Average P.C,3C protease (EV assay); [19],1002.48 RFU/min
same,% Loss,3C protease (EV assay); [20],57%
same,Reaction rate Average P.C,3C protease (EV assay); [20],846.73 RFU/min
same,% Loss,3C protease (EV assay); [21],65%
same,Reaction rate Average P.C,3C protease (EV assay); [21],706.1 RFU/min
same,% Loss,3C protease (EV assay); [22],84%
same,Reaction rate Average P.C,3C protease (EV assay); [22],308.48 RFU/min
same,effect on reaction rate,3C protease (EV assay),loss in reaction rate
O [DDW],reaction rate lower compared to DMSO,[1]; substrate diluted with DDW,25%
same,"Positive control, Average",[1],789.5 RFU/min
same,Positive control,[1],747 ± 68 RFU/min and 832 ± 64 RFU/min
C[S+](C)[O-] [DMSO],"Positive control, Average",[1],1005 RFU/min
same,Positive control,[1],1023 ± 36 RFU/min and 987 ± 126 RFU/min
same,Reaction rate Average P.C,"3C protease (EV assay); DMSO 1% final, Table 41",1270 RFU/min
same,% Loss,"3C protease (EV assay); DMSO 2.5% final, Table 41",7%
same,Reaction rate Average P.C,"3C protease (EV assay); DMSO 2.5% final, Table 41",1139.26 RFU/min
same,Reaction rate Average P.C,"3C protease (EV assay); DMSO 4% final, Table 41",1288 RFU/min
same,effect on reaction rate,3C protease (EV assay),no loss in reaction rate
CC(C)O [Isopropanol],salt precipitation in reaction buffer,3C protease (EV assay); 4 and 5% final,salt precipitation formed
same,% Loss,3C protease (EV assay); [23],45%
same,Reaction rate Average P.C,3C protease (EV assay); [23],641.57 RFU/min
same,% Loss,3C protease (EV assay); [24],35%
same,Reaction rate Average P.C,3C protease (EV assay); [24],1047.42 RFU/min
same,% Loss,3C protease (EV assay); [25],3%
same,Reaction rate Average P.C,3C protease (EV assay); [25],1143.93 RFU/min
same,% Loss,3C protease (EV assay); [26],50%
same,Reaction rate Average P.C,3C protease (EV assay); [26],806 RFU/min
same,% Loss,3C protease (EV assay); [27],100%
same,Reaction rate Average P.C,3C protease (EV assay); [27],−2.7 RFU/min
same,% Loss,3C protease (EV assay); [28],42%
same,Reaction rate Average P.C,3C protease (EV assay); [28],676.0 RFU/min
same,% Loss,3C protease (EV assay); [29],100%
same,Reaction rate Average P.C,3C protease (EV assay); [29],−4.19 RFU/min
same,% Loss,3C protease (EV assay); [30],75%
same,Reaction rate Average P.C,3C protease (EV assay); [30],394.82 RFU/min
same,effect on reaction rate,3C protease (EV assay),loss in reaction rate
